# Source: patent publication US20060223779A1, “Method of screening for inhibitors of human Fatty Acid-CoA Ligase 4” (priority 2000, published 2006)
# Experiments:
# COX-2 stable 293 cells = experiment: Apoptosis in stably transfected 293 cells with inducible COX-2 over-expression; assay type: cell-based, human; conditions: for reduction of fatty acid-induced apoptosis by inducing COX-2 over-expression: COX-2 over-expression induced, n=3
# Experimental: (A) Conditional expression level of FACL4 and COX-2 in stably transfected lines. Cells were treated with (+) or without (−) ponasterone (1 μg/ml) for 48 hr, and Western blotting was carried out with anti-FACL4 and anti-COX-2 antibodies, respectively. The loading was normalized with an anti-β actin antibody (ICN Biomedicals). […] The 293 cells stably transfected with an empty control vector (Ctl), FACL4 cDNA, COX-2 cDNA, and both FACL4 and COX-2 cDNAs were uninduced (−Pon) or induced for over-expression (+Pon) as in A. AA (300 μM) was added after 24 hr of induction and apoptosis was determined 44 hr later. […] The plot is a comparison of the relative apoptosis levels among the stable lines and is representative of three independent experiments. The values shown are the averages of triplicate determinations. […] Cells were uninduced (−Pon) or induced for over-expression as above. […] COX inhibitors were administered 6 hr later as indicated. AA (300 μM) was then added after 2 hr and apoptosis was determined 44 hr later. The plot is prepared as in B, and is a representative result from three independent experiments, in which triplicates were performed. Wt=wild-type, Mut=mutant, Met=50 μM 6-methoxy-2-naphthyl acetic acid, Indo=10 μM indomethacin. […] The COX-2, FACL4/COX-2 stable and control cells carrying an empty vector were induced for 48 hr, washed and incubated with 20 μM AA at 37° C. for 30 min. The amount of PGE2 synthesized was determined by ELISA. […] (E) The levels of free AA in the stable lines. The [^3H]
# (§1) Cell Death Detection ELISA. Cells were plated on 96 well-plates at 1×10^4 cells per well. AA was applied and apoptotic death was determined after 44 hr with the Cell Death Detection ELISA (Boehringer Mannheim).
# Stable cell lines. The ecdysone inducible system (Invitrogen) was used to construct stable lines over-expressing human FACL4, COX-2, COX-2 mutant, and both FACL4 and COX-2. […] The cDNAs were cloned into pIND(SP1) (Neomycin^r). The cDNA constructs, or the empty vector pIND(SP1) were transfected into EcR293 cells, which were then selected in 400 μg/ml geneticin and 400 μg/ml zeocin. […] The double stable line was generated by stably transfecting the COX-2 stable cells with another pIND(SP1)-FACL4 cDNA construct, in which the FACL4 cDNA was cloned into a pIND(SP1) (hygromycin^r) vector. The cells were selected in 400 μg/ml geneticin, 400 μg/ml zeocin, and 50 μg/ml hygromycin B. The positive colonies were screened as described above.
# 293 cells = experiment: Apoptosis by Cell Death Detection ELISA in 293 cells; assay type: cell-based, human; conditions: for effect of antioxidant pretreatment on AA-induced apoptosis: antioxidant 1 hr, then AA 200 μM
# Experimental: FIG. 3: Arachidonic acid induces apoptosis via activation of caspase 3. (A) Determination of cell survival. AA was added to 293 cells at the indicated concentrations and the surviving fraction of cells was determined after 44 hr. The values shown are relative to the viability of cells that were not exposed to AA. (B) Increased apoptosis in cells exposed to AA. Cells were treated with AA (300 μM) or palmitic acid (300 μM) under the same conditions as in A, and then apoptosis was detected with an ELISA. The mean values from triplicate determinations are shown. […] The 293 cells were treated with AA (300 μM; +AA) or vehicle alone (−AA) for 44 hr. The nuclei were stained with DAPI, and DNA strand breaks in individual cells were detected with a fluorescent TUNEL assay. The upper panels are the same field of cells (−AA) photographed under UV (left panels) and FITC filters (right panels). The lower panels illustrate apoptotic cells (+AA). The magnification is 80×. (D) Immunostaining with an anti-active caspase 3 antibody. Upper panels, control cells (−AA); lower panels, cells exposed to 300 μM AA. Left panels, DAPI staining; right panels, immunostaining with an antibody selective for active caspase 3. The magnification is 100×. […] The 293 cells were preincubated with caspase inhibitors (including DMQD, a caspase 3 inhibitor, and YVAD, a caspase 1 and 4 inhibitor (Peptide Institute)) for 1 hr at the indicated concentrations, AA (300 μM) was added, and apoptosis was determined 44 hr later. The values represent the means from triplicate determinations.
# as §1
# HT 29 cells = experiment: Apoptosis by Cell Death ELISA in HT 29 cells; assay type: cell-based
# Experimental: HT 29 Cells were plated in 96 wells. Triacsin C and AA were added (in A), or triacsin C with either indomethacin (Indo) or sulindac (Sul) (in B) were added at the indicated concentrations. Indomethacin and sulindac are both cyclooxygenase (COX) inhibitors. Apoptosis was determined by Cell Death ELISA 44 hr later (A), and 72 hr later (B), respectively. […] The values shown are the means of triplicate determinations.
# as §1
compound,measurement,setting,value
"CC/C=C\C/C=C\C/C=C\C/C=C\C/C=C\C/C=C\CCC(=O)O [DHA, docosahexaenoic acid]",fold-increase in apoptosis after fatty acid treatment,COX-2 stable 293 cells; 100 μM,15.1 fold
same,reduction of fatty acid-induced apoptosis by inducing COX-2 over-expression,COX-2 stable 293 cells,18.5%
"CC/C=C\C/C=C\C/C=C\C/C=C\C/C=C\CCCC(=O)O [EPA, eicosapentaenoic acid]",fold-increase in apoptosis after fatty acid treatment,COX-2 stable 293 cells; 200 μM,9.1 fold
same,reduction of fatty acid-induced apoptosis by inducing COX-2 over-expression,COX-2 stable 293 cells,34.0%
CC(Cc1ccc(O)c(O)c1)C(C)Cc1ccc(O)c(O)c1 (stereo not shown) [NDGA],induction of apoptosis,293 cells; 293 cells,induced apoptosis
O=C1O[C@H]([C@@H](O)CO)C(O)=C1O [ascorbic acid],effect of antioxidant pretreatment on AA-induced apoptosis,"293 cells; 293 cells, 44 hr",apoptosis decreased significantly
COc1ccc2c(c1)c(CC(=O)O)c(C)n2C(=O)c1ccc(Cl)cc1 [indomethacin],effect on the prevention of apoptosis by COX-2,"COX-2 stable 293 cells; 10 μM, AA 300 μM, COX-2 over-expressing cells",did not alter the apoptosis response
CCCCCCCC/C=C\CCCCCCCC(=O)O [oleic acid],induction of apoptosis by other fatty acids compared with AA,293 cells,did not cause the same response
CCCCCCCCCCCCCCCC(=O)O [palmitic acid],induction of apoptosis by other fatty acids compared with AA,293 cells,did not cause the same response
same,apoptosis (mono- and oligo-nucleosomes) over the control,"293 cells; 293 cells, 300 μM, 44 hr",no increase
same,fold-increase in apoptosis after fatty acid treatment,COX-2 stable 293 cells; 200 μM,4.2 fold
same,reduction of fatty acid-induced apoptosis by inducing COX-2 over-expression,COX-2 stable 293 cells,8.1%
CCC/C=C/C/C=C/C=C/C=N/NN=O [triacsin C],cell death with triacsin C alone,HT 29 cells; 2 μM,did not cause cell death
same,increase in apoptosis compared to control cells,HT 29 cells; 10 μM,9 fold
same,induction of apoptosis,HT 29 cells; Cell Death ELISA,induced apoptosis in a concentration-dependent manner
same,increase of the apoptosis-inducing effect of triacsin C in the presence of sulindac,"HT 29 cells; plus sulindac, 72 hr",4-8 fold
same,apoptosis with triacsin C when indomethacin was added,"HT 29 cells; triacsin C 2 μM plus indomethacin, 72 hr",induced apoptosis
same,sensitization to AA-induced apoptosis,"HT 29 cells; triacsin C plus AA, 44 hr",sensitized cells to AA-induced apoptosis
Cc1c(C)c2c(c(C)c1O)CCC(C)(C(=O)O)O2 (stereo not shown) [trolox],effect of antioxidant pretreatment on AA-induced apoptosis,"293 cells; 293 cells, 44 hr",apoptosis decreased significantly
apo-transferrin: a membrane-impermeable antioxidant,effect of antioxidant pretreatment on AA-induced apoptosis,"293 cells; 293 cells, 44 hr",did not alter AA-induced apoptosis
tocopherol,effect of antioxidant pretreatment on AA-induced apoptosis,"293 cells; 293 cells, 44 hr",apoptosis decreased significantly
z-YVAD-fmk,blocking of AA-induced apoptosis by caspase inhibitor,"293 cells; 293 cells preincubated 1 hr with inhibitor, AA 300 μM, 44 hr",not
